Laboratory results taken from ChEMBL document CHEMBL3988442, “University of Dundee, Small-Polar-MMV Screening Library” (2021).
Values joined by “and” are separate entries in the source; they are usually repeats but may differ in a detail not shown here. Identical values can stand only once.

Tests used:
Wolbachia pipientis = experiment: Anti-Wolbachia Cell-Based Screen; assay type: functional; conditions: for IC50: Wolbachia pipientis
[1] = target: Polyketide synthase Pks13 (Mycobacterium tuberculosis (strain ATCC 25618 / H37Rv), UniProt I6X8D2); experiment: Mycobacterium tuberculosis Polyketide synthase 13 Thioesterase (PKS13); assay type: functional
Chain of Polyketide synthase Pks13 (I6X8D2 whole entry): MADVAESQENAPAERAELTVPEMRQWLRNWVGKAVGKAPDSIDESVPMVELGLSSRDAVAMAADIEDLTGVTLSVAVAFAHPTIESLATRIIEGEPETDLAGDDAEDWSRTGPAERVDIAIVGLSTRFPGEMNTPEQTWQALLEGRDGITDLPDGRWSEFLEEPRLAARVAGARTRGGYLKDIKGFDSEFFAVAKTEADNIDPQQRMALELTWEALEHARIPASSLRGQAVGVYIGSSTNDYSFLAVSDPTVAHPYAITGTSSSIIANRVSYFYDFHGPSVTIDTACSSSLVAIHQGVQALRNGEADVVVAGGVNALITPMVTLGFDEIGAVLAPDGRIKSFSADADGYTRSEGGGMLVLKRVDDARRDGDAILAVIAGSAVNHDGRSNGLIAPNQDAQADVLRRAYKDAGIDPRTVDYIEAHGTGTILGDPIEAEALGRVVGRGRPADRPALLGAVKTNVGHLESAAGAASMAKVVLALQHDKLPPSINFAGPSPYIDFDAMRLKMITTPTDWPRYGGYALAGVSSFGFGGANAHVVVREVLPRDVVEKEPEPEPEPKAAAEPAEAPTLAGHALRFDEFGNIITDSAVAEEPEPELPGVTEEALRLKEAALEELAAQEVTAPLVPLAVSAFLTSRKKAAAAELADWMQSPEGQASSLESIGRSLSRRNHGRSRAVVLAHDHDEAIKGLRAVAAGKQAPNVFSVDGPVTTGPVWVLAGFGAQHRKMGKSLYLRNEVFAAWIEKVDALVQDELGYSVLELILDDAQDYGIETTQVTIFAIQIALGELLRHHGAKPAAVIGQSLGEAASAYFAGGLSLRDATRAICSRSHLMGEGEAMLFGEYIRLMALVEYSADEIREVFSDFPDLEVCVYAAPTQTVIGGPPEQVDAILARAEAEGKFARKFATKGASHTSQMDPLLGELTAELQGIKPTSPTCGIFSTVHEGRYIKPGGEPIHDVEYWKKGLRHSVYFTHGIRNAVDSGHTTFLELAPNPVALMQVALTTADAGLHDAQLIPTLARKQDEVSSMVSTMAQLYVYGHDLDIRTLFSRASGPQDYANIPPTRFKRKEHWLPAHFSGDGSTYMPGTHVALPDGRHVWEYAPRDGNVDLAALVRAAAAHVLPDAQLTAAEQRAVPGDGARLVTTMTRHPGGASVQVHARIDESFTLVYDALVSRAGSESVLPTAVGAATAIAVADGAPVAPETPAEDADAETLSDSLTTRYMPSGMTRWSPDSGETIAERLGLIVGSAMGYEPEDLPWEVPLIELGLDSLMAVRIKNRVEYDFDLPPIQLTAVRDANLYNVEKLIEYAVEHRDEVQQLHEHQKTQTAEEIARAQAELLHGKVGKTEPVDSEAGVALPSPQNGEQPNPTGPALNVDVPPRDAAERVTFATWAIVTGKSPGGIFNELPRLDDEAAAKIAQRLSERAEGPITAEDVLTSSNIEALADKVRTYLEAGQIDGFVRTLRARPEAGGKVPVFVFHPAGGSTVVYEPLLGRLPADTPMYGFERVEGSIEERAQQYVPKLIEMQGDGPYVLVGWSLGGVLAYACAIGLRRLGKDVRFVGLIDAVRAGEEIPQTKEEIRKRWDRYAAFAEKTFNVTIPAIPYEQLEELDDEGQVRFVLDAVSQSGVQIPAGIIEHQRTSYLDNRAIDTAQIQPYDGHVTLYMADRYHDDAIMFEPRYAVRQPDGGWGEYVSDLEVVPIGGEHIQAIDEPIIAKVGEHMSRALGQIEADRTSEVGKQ

Tryptophan--tRNA ligase = Tryptophan--tRNA ligase (Mycobacterium tuberculosis (strain ATCC 25618 / H37Rv), UniProt P9WFT3); experiment: Biochemical assay for Mt-TrpRS; assay type: functional
Chain of Tryptophan--tRNA ligase (P9WFT3 whole entry): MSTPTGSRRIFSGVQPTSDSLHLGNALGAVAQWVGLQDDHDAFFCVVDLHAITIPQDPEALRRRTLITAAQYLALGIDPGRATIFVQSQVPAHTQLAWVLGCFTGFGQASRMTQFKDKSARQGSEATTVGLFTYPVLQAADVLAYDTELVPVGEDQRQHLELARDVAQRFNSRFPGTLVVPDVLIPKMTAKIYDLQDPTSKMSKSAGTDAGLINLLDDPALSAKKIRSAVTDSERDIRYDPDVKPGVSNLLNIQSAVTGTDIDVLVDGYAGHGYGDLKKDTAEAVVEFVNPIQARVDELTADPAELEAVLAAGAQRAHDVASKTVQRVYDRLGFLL

[2] = target: T1, Coenzyme A biosynthesis bifunctional protein CoaBC (Mycobacterium tuberculosis (strain ATCC 25618 / H37Rv), UniProt P9WNZ1); experiment: Biomol Green assay for MtCoaBC inhibitor, OD650 read; assay type: functional
T1 sequence (P9WNZ1 whole entry): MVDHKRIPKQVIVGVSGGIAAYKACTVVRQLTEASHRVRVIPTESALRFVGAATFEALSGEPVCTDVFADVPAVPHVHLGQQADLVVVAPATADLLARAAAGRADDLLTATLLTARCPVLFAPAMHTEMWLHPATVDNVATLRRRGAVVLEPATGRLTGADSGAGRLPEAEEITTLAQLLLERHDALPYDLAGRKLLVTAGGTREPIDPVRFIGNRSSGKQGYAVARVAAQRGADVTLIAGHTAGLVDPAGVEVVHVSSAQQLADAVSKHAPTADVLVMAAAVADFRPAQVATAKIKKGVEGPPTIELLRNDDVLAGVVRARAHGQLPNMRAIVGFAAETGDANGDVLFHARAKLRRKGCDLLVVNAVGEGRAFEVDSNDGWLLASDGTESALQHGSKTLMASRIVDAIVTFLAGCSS

ClpP1P2 = ClpP1P2 (Mycobacterium tuberculosis (strain ATCC 25618 / H37Rv), UniProt P9WPC3+P9WPC5); experiment: in vitro assay to detect presence of AMC directly proportional to the activity of ClpP1P2. GHDDI collaboration.; assay type: functional
Chain of ClpP1P2 (P9WPC5 whole entry): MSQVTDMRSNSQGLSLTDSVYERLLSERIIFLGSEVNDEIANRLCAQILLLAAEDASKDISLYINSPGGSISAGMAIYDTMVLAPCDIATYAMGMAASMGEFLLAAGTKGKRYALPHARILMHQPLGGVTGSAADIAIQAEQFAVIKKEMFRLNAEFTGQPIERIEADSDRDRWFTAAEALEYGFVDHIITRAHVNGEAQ
Chain of ClpP1P2 (P9WPC3 whole entry): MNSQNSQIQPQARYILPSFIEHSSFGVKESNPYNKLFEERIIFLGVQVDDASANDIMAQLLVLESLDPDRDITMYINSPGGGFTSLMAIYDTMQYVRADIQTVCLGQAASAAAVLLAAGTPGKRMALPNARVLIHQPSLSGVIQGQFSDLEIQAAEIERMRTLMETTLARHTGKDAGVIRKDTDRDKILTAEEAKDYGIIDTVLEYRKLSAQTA

Leishmania donovani = experiment: Leishmania intramacrophage assay; assay type: functional, organism-based; conditions: Leishmania donovani
[3] = In vitro enzyme assay to detect hydrolysis of chlorophenol red-beta-D-[…] directly proportional to the number of Toxoplasma stably expressing beta-galactosidase; assay type: functional, organism-based, Toxoplasma gondii; conditions: for IC50: Toxoplasma gondii
Lysine--tRNA ligase = Lysine--tRNA ligase (Plasmodium falciparum (isolate 3D7), UniProt Q8IDJ8); experiment: Pf-KRS-1 (Lysyl-RNA Synthetase-1, KRS-1, cytosolic KRS) from Plasmodium falciparum. Inhibitor assay, 384 well plate, luminescence read.; assay type: functional
Chain of Lysine--tRNA ligase (Q8IDJ8 whole entry): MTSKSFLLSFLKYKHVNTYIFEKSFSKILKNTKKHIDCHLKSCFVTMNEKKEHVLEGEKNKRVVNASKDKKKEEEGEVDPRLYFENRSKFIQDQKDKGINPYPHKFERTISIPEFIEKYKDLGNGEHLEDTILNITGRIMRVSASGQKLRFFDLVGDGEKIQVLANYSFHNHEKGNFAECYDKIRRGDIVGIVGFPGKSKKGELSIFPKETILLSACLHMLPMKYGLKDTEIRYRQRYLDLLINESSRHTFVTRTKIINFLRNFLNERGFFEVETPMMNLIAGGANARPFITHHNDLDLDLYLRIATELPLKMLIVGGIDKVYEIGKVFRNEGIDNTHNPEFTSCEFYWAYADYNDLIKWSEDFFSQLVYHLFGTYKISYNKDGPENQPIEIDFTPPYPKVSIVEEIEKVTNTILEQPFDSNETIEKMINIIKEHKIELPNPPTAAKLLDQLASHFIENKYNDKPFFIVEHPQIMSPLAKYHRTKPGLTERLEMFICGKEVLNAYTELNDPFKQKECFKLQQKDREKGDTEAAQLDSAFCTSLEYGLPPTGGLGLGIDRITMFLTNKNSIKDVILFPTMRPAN

Histidine--tRNA ligase = target: T2, Histidine--tRNA ligase (Leishmania infantum, UniProt A4I591); experiment: Leishmania infantum Histidine tRNA synthetase (LdHisRS); assay type: functional
T2 sequence (A4I591 whole entry): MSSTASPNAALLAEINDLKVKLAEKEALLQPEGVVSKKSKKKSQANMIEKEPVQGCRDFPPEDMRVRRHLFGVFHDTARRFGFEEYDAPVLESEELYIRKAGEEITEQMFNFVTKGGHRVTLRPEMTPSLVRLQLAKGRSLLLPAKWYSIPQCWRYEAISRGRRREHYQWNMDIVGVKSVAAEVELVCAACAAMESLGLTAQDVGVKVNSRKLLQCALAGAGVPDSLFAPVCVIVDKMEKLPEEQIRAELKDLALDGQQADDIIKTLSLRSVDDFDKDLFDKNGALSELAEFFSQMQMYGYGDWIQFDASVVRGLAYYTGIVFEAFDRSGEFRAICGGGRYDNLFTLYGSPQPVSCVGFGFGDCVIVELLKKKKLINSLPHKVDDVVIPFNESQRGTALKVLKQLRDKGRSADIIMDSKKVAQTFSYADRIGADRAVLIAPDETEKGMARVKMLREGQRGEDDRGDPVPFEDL

[4] = microbe, parasite or virus in culture; conditions: Mycobacterium tuberculosis, 96 h, read-out: pIC50 (converted)
[5] = microbe, parasite or virus in culture; conditions: Mycobacterium tuberculosis, 72 h, read-out: pIC50 (converted)

Compound	IC50 [1]	IC50 (ClpP1P2) [µM]	further results
CCCNC(=O)c1ncn2c1CN(CC(C)C)S(=O)(=O)c1ccccc1-2			IC50 (Wolbachia pipientis): > 10 µM
CNS(=O)(=O)c1csc(C(=O)N(C)Cc2ccccc2C)c1	> 100 µM		IC50 (Tryptophan--tRNA ligase): > 195 µM
Cc1cccc(N2CCN(C(=O)c3c(C)nn(C)c3C)CC2)c1C			pIC50 (Wolbachia pipientis): 5.626; IC50 (Wolbachia pipientis): 2.32 µM
CCCS(=O)(=O)NCc1ncc(C)c(OC)c1C			pIC50 (Wolbachia pipientis): 5.88; IC50 (Wolbachia pipientis): 1.37 µM
CCc1ccc(CN(C(=O)CCn2cc(S(N)(=O)=O)cn2)C2CC2)cc1			IC50 (Wolbachia pipientis): > 10 µM
COc1ccccc1N1CCC(CNS(=O)(=O)c2cccc(C#N)c2)C1 (stereo not drawn)	49.7 µM and > 100 µM		IC50 [2]: > 30.2 µM
Cc1cc2nc(C(C)C)cc(NCC(c3ccccn3)N(C)C)n2n1 (stereo not drawn)			pIC50 (Wolbachia pipientis): 5.809; IC50 (Wolbachia pipientis): 1.75 µM
CCOCCCn1c(NC(=O)c2cnc(C)cn2)nc2ccccc21			pIC50 (Wolbachia pipientis): 5.233; IC50 (Wolbachia pipientis): 5.75 µM
CCn1cc(NC(=O)c2cccc(CN3C[C@@H](C)O[C@@H](C)C3)c2)nn1			pIC50 (Wolbachia pipientis): < 5; IC50 (Wolbachia pipientis): 8.23 µM
OC1(CN2CCC(Oc3cccc(C(F)(F)F)c3)CC2)CNCCOC1 (stereo not drawn)			IC50 (Wolbachia pipientis): > 10 µM
Cc1cc(NC(=O)NCC(O)c2ccc(F)c(F)c2)n(C)n1 (stereo not drawn)			IC50 (Wolbachia pipientis): > 10 µM
CC(c1ccco1)N(C(=O)c1cc2c([nH]c1=O)CCCC2=O)C1CC1 (stereo not drawn)			IC50 (Wolbachia pipientis): > 10 µM
Cc1cnc2c(C(=O)N3CCCC(OCc4ccccn4)C3)cnn2c1 (stereo not drawn)	> 100 µM		IC50 [2]: > 30.2 µM
CC(C)N(C(=O)c1csc(-c2ccoc2)n1)C1CCOCC1			IC50 (Wolbachia pipientis): > 10 µM
Cc1nn(C)c(C)c1CN(C)c1nc(C2CC2)nc2c(C)nn(C)c12			pIC50 (Wolbachia pipientis): 5.529; IC50 (Wolbachia pipientis): 2.65 µM
Cc1cc(NC(=O)c2ccccc2Br)n(C)n1			IC50 (Wolbachia pipientis): > 10 µM
Cn1c(Cn2ncc(N3CCCCC3)cc2=O)nc2ccccc21	> 100 µM	> 100	
O=C(c1ccccc1)C1CCN(c2cncc(-n3cccn3)n2)CC1	29 µM and 33.8 µM		IC50 (Leishmania donovani): > 50.1 µM
CC(C)(C)Nc1nc(-c2cccnc2)c(-c2ccnc(NCCO)n2)s1	> 100 µM		IC50 [3]: 5.53 µM
CNC(=O)N1CCc2cc(C(=O)NCC3CC3)c(NC(C)C)nc2CC1	10.7 µM and 18.7 µM	> 100	
CC(C)c1cc(CN2CCC(CC(=O)O)CC2)no1	12.3 µM and 7.76 µM		IC50 (Tryptophan--tRNA ligase): > 195 µM
CCOc1cc(/C=C/c2ncc(C(=O)O)s2)cc(Br)c1O	> 100 µM and 24.3 µM		IC50 [2]: > 30.2 µM
CNC(=O)c1cc2c(nc1NCC(C)C)CCN(S(C)(=O)=O)CC2	> 100 µM and 16.4 µM	> 100	
Cc1ccc2[nH]c(CO[C@H]3CN(c4ccc(C#N)cn4)C[C@H]3F)nc2c1	26.6 µM	7.25	IC50 (Lysine--tRNA ligase): > 50.1 µM; IC50 (Histidine--tRNA ligase): 27.1 µM and 37.7 µM; IC50 [2]: > 50.1 µM

Compound	IC50 [1]	IC50 (ClpP1P2) [µM]	further results
CC(C)c1cc(N2CCC(N)CC2)n2nccc2n1	> 100 µM		IC50 (Leishmania donovani): > 50.1 µM
O=c1[nH]c(NCCCO)nc2c1C1(CCCC1)Cc1ccccc1-2	24.5 µM and 29.7 µM	> 100	
NC(=O)c1ccccc1-n1cc(-c2cccc(C(=O)O)c2)cn1	> 100 µM		IC50 (Histidine--tRNA ligase): 88.1 µM and > 100 µM
O=c1[nH]c(NC2CCCC2)nc2nccc(-c3ccco3)c12	> 100 µM	> 100	
CCn1cc(-c2cc(-c3ccn(C)c3)nc(N)c2C#N)cc1C#N	51.8 µM and 43.6 µM	> 100	
Cn1nccc1CCC(=O)N1CCCC(c2cnccn2)C1 (stereo not drawn)	> 100 µM		IC50 (Tryptophan--tRNA ligase): > 195 µM
O=C(O)c1cn(-c2ccccn2)c(=O)c2ccccc12	8.93 µM and 20.5 µM	> 100	
CCOCCOCc1cccc(CNc2cncc(-n3cccn3)n2)c1	29.9 µM and 19 µM	> 100	
CNC(=O)c1cc2c(nc1NCC(C)C)CCN(c1ccncn1)CC2	25.7 µM and 29.5 µM	> 100	
COCCNc1nc2c(c(NCC3CCOC3)n1)CCNCC2 (stereo not drawn)	> 100 µM		IC50 (Leishmania donovani): > 50.1 µM
Cc1nc(-c2ccc(Cl)s2)sc1C(=O)NC(C)(C)C(N)=O	> 100 µM and 21.1 µM	> 100	
CCc1n[nH]c(C2CN(C(=O)c3nc(C)n4ccccc34)CCO2)n1 (stereo not drawn)	18.2 µM and 11.7 µM	> 100	
COc1cnc(N2CC(N3CCOCC3)C2)nc1-c1ccnn1C	52.6 µM and 31.8 µM	> 100	IC50 (Histidine--tRNA ligase): 5.05 µM and 10.5 µM; IC50 [2]: > 50.1 µM
COC(=O)CNC(=O)c1sc(-c2ccc(Cl)s2)nc1C	22.3 µM and > 100 µM	> 100	
CNC(=O)c1cc2c(nc1NCC(C)C)CCN(CC1CC1)CC2	21 µM and 28.8 µM	> 100	
O=c1ccc2c(n1CC1CCOCC1)CCN(Cc1ccoc1)CC2	> 100 µM	> 100	
CCCOC(C)Cn1ccc2[nH]c(=O)c(C#N)cc2c1=O (stereo not drawn)	28.5 µM and 11.6 µM	> 100	IC50 (Lysine--tRNA ligase): > 50.1 µM
CC(C)Nc1nc2c(cc1C(=O)NCC1CC1)CCN(S(C)(=O)=O)CC2	20.5 µM and 23.8 µM	> 100	
COc1cnc(N2CCN(C)CC2)nc1-c1ccnn1C	23.7 µM and 24.9 µM	> 100	
CC(CN1CCCC1=O)NC(=O)c1ccc(-c2ccco2)[nH]c1=O (stereo not drawn)	7.52 µM and 13.7 µM	> 100	
CC(C)Nc1nc2c(cc1C(=O)NCC1CC1)CCN(C)CC2	30.6 µM and 15.6 µM	> 100	
Cn1cc(NC(=O)c2cc[nH]n2)cc(Cl)c1=O	> 100 µM		IC50 [4]: > 50.1 µM; IC50 [5]: > 50.1 µM; IC50 (Lysine--tRNA ligase): > 50.1 µM
CS(=O)(=O)c1ccc(-c2cc(C3CC3)c(C#N)c(N)n2)cc1	10.4 µM and 11.5 µM	> 100	
COc1ccccc1-c1ccnc2nc(N3CCCCC3)[nH]c(=O)c12	10.9 µM and 13.9 µM	> 100	

Compound	IC50 [1]	IC50 (ClpP1P2) [µM]	further results
Cn1cnc(-c2nc(C(=O)NC3CC3)c3ccccn23)c1	73.2 µM and 16.1 µM	> 100	
CCc1ncc2c(n1)CN(CC1CCCCO1)CC2 (stereo not drawn)	> 100 µM		IC50 (Lysine--tRNA ligase): > 50.1 µM
CN(C)S(=O)(=O)c1ccc(-c2nc(C#N)c(NC3CC3)o2)o1	12.2 µM and 13.6 µM	> 100	
CCC1(CC)Cc2ccccc2-c2nc(NCCCO)[nH]c(=O)c21	21.9 µM and 23.7 µM	> 100	
Cc1ccc(C(=O)N(C)Cc2cc(C)on2)cn1	> 100 µM	> 100	
Cc1ncc2c(n1)CN(CCCc1nc3ccccc3o1)CC2	> 100 µM		IC50 (Lysine--tRNA ligase): > 50.1 µM
CS(=O)(=O)c1ccc(-c2nc(C(=O)N3CCCC3)n3ccccc23)cc1	12.3 µM and 12.9 µM	> 100	
CN(C)C(=O)c1cnc(-c2ccc3c(c2)OCO3)s1	11.1 µM and 8.56 µM	> 100	
COC(=O)CNC(=O)c1nc(-c2ccccc2OC)c2cnccn12	79.6 µM and > 100 µM	> 100	
COCC(=O)N1CCC(c2cc(C(F)(F)F)n3ccnc3n2)CC1	28.4 µM and 36.3 µM	> 100	
CC(C)(CO)CNC(=O)c1cc(-c2cc[nH]n2)n2ccccc12	22.5 µM and 17.5 µM	> 100	
Cc1nc(C)n(C2CCCN(C(=O)c3nc(C)n4ccccc34)C2)n1 (stereo not drawn)	8.78 µM and 12.7 µM	> 100	
CCCn1c(N2CCCC2)nc2c(C)nn(C)c2c1=O	> 100 µM		IC50 [3]: > 50.1 µM
CC(C)Nc1nc2c(cc1C(=O)NCC1CC1)CCNCC2	19.7 µM and 19.3 µM	> 100	
NS(=O)(=O)Cc1ccc(CNc2cncc(-n3cccn3)n2)cc1	19.4 µM and > 100 µM	> 100	
Cn1cnc(-c2nc(C(=O)NCCN3CCOCC3)c3ccccn23)c1	15.6 µM and 34.1 µM	> 100	
CC(C)Nc1nc2c(cc1C(=O)NCC1CC1)CCN(CC1CC1)CC2	14.7 µM and 35.6 µM	> 100	
CN1CCC(NC(=O)c2cc(F)cc(Cl)c2O)C1=O (stereo not drawn)	40.1 µM and 21.4 µM	> 100	
CC(=O)N1CCC(c2cc(C(F)(F)F)nc3nccn23)CC1	16.7 µM and 13.5 µM	> 100	
COCc1ccc(CNc2cncc(-n3cccn3)n2)cc1	> 57.5 µM and 18.9 µM	> 100	
Cc1nc(-c2ccc(Cl)s2)sc1C(=O)NCCCC(N)=O	> 100 µM and 15.1 µM	> 100	
Cc1csc(CNc2cnc3c(c2)c(C)nn3C)n1	7.6 µM and 15.2 µM	> 100	
O=C(c1ccc(COc2ccc(Cl)cc2)o1)N1N=CCC1(O)C(F)(F)F (stereo not drawn)	17.3 µM and 24.2 µM		pIC50 [3]: 5.524; IC50 [3]: 3.1 µM
CCCOc1ccc(Cl)cc1CNc1ncnc2oc(C)nc12	12.3 µM and 19.8 µM		IC50 [4]: > 50.1 µM; IC50 [5]: > 50.1 µM; IC50 [3]: 12.6 µM
